Patent publication US10206896B2, “Method of treating delayed healing of a wound associated with diabetes” (KUWAIT UNIVERSITY, priority 2014, dated 2019)

Key:
[1] = tested on: diabetic fibroblasts (DFs); test: BrdU incorporation into DNA (cell proliferation) in diabetic fibroblasts; assay type: cell-based, GotoKakizaki (GK) rat; details: treated DFs compared with DFs
Description: (§1) Cell culture and HP treatment.
Assessment of key fibroblast functions essential for wound healing. To assess cell proliferation, fibroblasts were seeded into a 96-well plate at a density of 1×10^4 per well and were allowed to adhere overnight in DMEM medium supplemented with 10% FCS. After arrest by incubation in serum-free medium for 24 hours, the cells were exposed to growth factors, and the incorporation of bromodeoxyuridine (BrdU) into DNA was determined using the manufacturer's protocol (Roche Diagnostics). Similarly, for the in vitro wound (migration) experiments, cultured fibroblasts were grown in six-well plates until they reached confluence. The medium was removed, the cells were washed with PBS 3× before culturing was continued in serum-free DMEM containing 0.5% BSA for an additional 24 hours. Thereafter, the monolayer was artificially wounded by using a pipette tip to scratch across the plate; the cells were washed with PBS to remove the detached cells and then cultured in serum-free medium in the presence of mitomyocin C (10 μg/ml) to prevent cell proliferation. The rate of wound healing was quantified as described in the literature

[2] = tested on: chronic oxidative stress fibroblasts (OS-CFs); test: Premature senescence in chronic oxidative stress fibroblasts; assay type: cell-based, Wistar rat
Description: as §1
Oxidatively-stressed CFs (OS-CFs). A heightened state of oxidative stress and premature senescence in CFs were induced using hydrogen peroxide (HP) as a stressor. The HP treatment was conducted by seeding approximately 1×10^6 cells in a T75 tissue culture flask. Twenty-four hours later, the cells were exposed to a sublethal dose of HP (150 μM) for 2 hours, washed 2× with PBS and after 4 days of culturing in HP free medium; they were split in a 1:2 ratio, and then the aforementioned protocol was repeated again for cells receiving the second and third HP treatment. A third passage HP-treated CFs denoted in the current study as (OS-CFs) together with the corresponding CFs and DFs were used in most of the assays outlined below.

[3] = tested on: diabetic fibroblasts (DFs)
[4] = tested on: circular wound of a diabetic rat; test: Full-thickness excisional circular wound, rate of wound closure; assay type: in vivo, GotoKakizaki (GK) rat; details: composition of 30 μM 18α-GA and pluronic acid applied to the wound
Description: Wound model, drug treatment and macroscopic evaluation. All of the animal procedures were performed in accordance with the NIH Guidance for the Care and Use of Laboratory Animals. Female GotoKakizaki rats (GK) were used in the current study. Detailed information regarding this animal model for non-obese type 2 diabetes has been previously described. Weight and age-matched female Wistar rats (Kuwait University breeding colony) served as the corresponding controls. All of the animals were maintained under standard conditions with a 12 hour on/off light cycle, commercial diet, and water ad libitum. […]
The targeted depletion of caveolin-1 was achieved using the antisense vivo-morpholino oligomers (MOs) that were synthesized and designed by Gene Tools, LLC (Eugene, Oreg.). […] The specificity of the cav-1 morphant phenotype was determined using rat caveolin-1 cRNA that lacked the antisense MO binding site. […] The wound area was analyzed using Adobe Photoshop (version 7.0; Adobe Systems), and the percentage of wound closure was derived by the following formula: (1−[current wound size/initial wound size])×100. […]
Full-thickness excisional wounds were induced in the control and GK (a non-obese genetic model of type 2 diabetes), and key parameters related to cellular senescence, caveolin-1 signaling and oxidative stress were measured 10 days post-injury. […]

[5] = tested on: control fibroblasts (CFs); test: BrdU incorporation into DNA (cell proliferation) in control fibroblasts; assay type: cell-based, Wistar rat; details: 24-hr serum starved CFs, vs starved cells; dose providing the maximum response (IGF 50 ng, PDGF 1 nM, EGF 100 ng)
Description: Cell culture and HP treatment. […] Assessment of key fibroblast functions essential for wound healing. To assess cell proliferation, fibroblasts were seeded into a 96-well plate at a density of 1×10^4 per well and were allowed to adhere overnight in DMEM medium supplemented with 10% FCS. After arrest by incubation in serum-free medium for 24 hours, the cells were exposed to growth factors, and the incorporation of bromodeoxyuridine (BrdU) into DNA was determined using the manufacturer's protocol (Roche Diagnostics). Similarly, for the in vitro wound (migration) experiments, cultured fibroblasts were grown in six-well plates until they reached confluence. The medium was removed, the cells were washed with PBS 3× before culturing was continued in serum-free DMEM containing 0.5% BSA for an additional 24 hours. […] The rate of wound healing was quantified as described in the literature […] Caveolin-1 protein expression and PDGF-induced phosphorylation of Akt (20 min) and ERK (10 min) in 24-hr serum starved fibroblasts were determined using a Western-blotting-based technique. A proliferation index encompassing BrdU incorporation into DNA and cell cycle progression was evaluated in response to various growth factors (e.g., IGF, 50 ng; PDGF, 1 nM; EGF, 100 ng) in 24-hr serum starved fibroblast. […]

[6] = tested on: control fibroblasts (CFs); test: In vitro scratch wound (cell migration) in control fibroblasts; assay type: cell-based, Wistar rat; details: 24 hrs post-injury
Description: Cell culture and HP treatment. […] Assessment of key fibroblast functions essential for wound healing. To assess cell proliferation, fibroblasts were seeded into a 96-well plate at a density of 1×10^4 per well and were allowed to adhere overnight in DMEM medium supplemented with 10% FCS. After arrest by incubation in serum-free medium for 24 hours, the cells were exposed to growth factors, and the incorporation of bromodeoxyuridine (BrdU) into DNA was determined using the manufacturer's protocol (Roche Diagnostics). Similarly, for the in vitro wound (migration) experiments, cultured fibroblasts were grown in six-well plates until they reached confluence. The medium was removed, the cells were washed with PBS 3× before culturing was continued in serum-free DMEM containing 0.5% BSA for an additional 24 hours. Thereafter, the monolayer was artificially wounded by using a pipette tip to scratch across the plate; the cells were washed with PBS to remove the detached cells and then cultured in serum-free medium in the presence of mitomyocin C (10 μg/ml) to prevent cell proliferation. The rate of wound healing was quantified as described in the literature […] Caveolin-1 protein expression and PDGF-induced phosphorylation of Akt (20 min) and ERK (10 min) in 24-hr serum starved fibroblasts were determined using a Western-blotting-based technique. A proliferation index encompassing BrdU incorporation into DNA and cell cycle progression was evaluated in response to various growth factors (e.g., IGF, 50 ng; PDGF, 1 nM; EGF, 100 ng) in 24-hr serum starved fibroblast. An in vitro wound-healing model conducted by scratching starved confluent cultured fibroblasts with a pipette tip was used to monitor the impact of PDGF on cell migration. […] In serum-induced proliferating cells in CFs, the optical density at 450 nm (OD450) was more than 10-fold higher than that observed for starved cells.

Row | premature senescence ([3]; DFs) | level/activity of SA-β-gal ([3]; treated DFs compared with DFs) | Compound | rate of proliferation (BrdU incorporation into DNA) [1] | premature senescence [2] | impaired wound healing (rate of wound closure) [4] | increase of proliferation rate (BrdU incorporation) [5] | number of cells that migrated into the cell-free wound zone [6] | relative potency on cell migration among growth factors [6]
1 | can be reversed | significantly lower level | CC1(C)[C@@H](O)CC[C@]2(C)[C@H]3C(=O)C=C4[C@H]5C[C@@](C)(C(=O)O)CC[C@]5(C)CC[C@@]4(C)[C@]3(C)CC[C@@H]12 [18α-GA, 18α-Glycyrrhetinic acid] | increased rate of proliferation | can be reversed | ameliorate impaired wound healing |  |  | 
2 |  |  | IGF: mitotic growth factor |  |  |  | ~6.7 fold | markedly increased | 
3 |  |  | PDGF |  |  |  | approximately 10 fold | markedly increased | most potent among them
